Source: patent US7718767B2, “3-ether and 3-thioether substituted cyclosporin derivatives for the treatment and prevention of hepatitis C infection” (Scynexis, Inc., priority 2006, dated 2010)
pEC50, pIC50: −log10 of the molar value. Counter-ions that a name gives are not always drawn.

Experiments:
HIV-1IIIB = assay: HIV MTS cytoprotection assay in CEM-SS cells; assay type: cell-based, human immunodeficiency virus-1; conditions: 6 days post-infection, concentration inhibiting virus replication by 50%
[1] = system: human hepatoma cell line ET; assay: Cytotoxicity in the replicon cell line, colorimetric assay of cell numbers; conditions: ET cells, 72 h; for pIC50: read-out: Cytotoxicity IC50, concentration inhibiting cell viability by 50%; for IC90: read-out: Cytotoxicity IC90, concentration inhibiting cell viability by 90%
Source text: Compounds were examined in the human hepatoma cell line ET (lub ubi heo/ET), a HCV RNA replicon containing a stable luciferase (LUC) reporter. The HCV RNA replicon ET contains the 5′ end of HCV (with the HCV Internal Ribosome Entry Site (IRES) and the first few amino acids of the HCV core protein) which drives the production of a firefly luciferase (LUC), ubiquitin, and neomycin phosphotransferase (NeoR) fusion protein. Ubiquitin cleavage releases the LUC and NeoR proteins. The EMCV IRES element controls the translation of the HCV […] NS3-NS5. The NS3 protein cleaves the HCV polyprotein to release the mature NS3, NS4A, NS4B, NS5A and NS5B proteins that are required for HCV replication. At the 3′ end of the replicon is the authentic 3′ NTR of HCV. The activity of the LUC reporter is directly proportional to HCV replication levels and positive-control antiviral compounds produce a reproducible antiviral response using the LUC endpoint.
The compounds were dissolved in DMSO at five half-log concentrations each, ranging from either 0.02 to 2.0 μM, 0.03 to 3 μM, […], or 1 to 100 μM. Subconfluent cultures of the ET line were plated out into 96 well plates dedicated for the analysis of cell numbers (cytotoxicity) or antiviral activity and the next day the compounds were added to the appropriate wells. The cells were processed 72 h later when the cells were still subconfluent. […] The activity of the LUC reporter is directly proportional to HCV RNA levels in the human cell line. The HCV-replicon assay was validated in parallel experiments using interferon-alpha-2b as a positive control.

HCV RNA replicon ET = assay: HCV RNA replicon luciferase reporter assay, antiviral activity; assay type: cell-based; conditions: ET replicon cells, 72 h, LUC activity; for pEC50: concentration reducing viral replication by 50%; for EC90: concentration reducing viral replication by 90%

Compound	pEC50 (HIV-1IIIB)	pIC50 [1]	IC90 [1] [µM]	pEC50 (HCV RNA replicon ET)	EC90 (HCV RNA replicon ET) [nM]
C/C=C/C[C@@H](C)[C@@H](O)[C@H]1C(=O)N[C@@H](CC)C(=O)N(C)[C@H](SCCOC)C(=O)N(C)[C@@H](CC(C)(C)O)C(=O)N[C@@H](C(C)C)C(=O)N(C)[C@@H](CC(C)C)C(=O)N[C@@H](C)C(=O)N[C@H](C)C(=O)N(C)[C@@H](CC(C)C)C(=O)N(C)[C@@H](CC(C)C)C(=O)N(C)[C@@H](C(C)C)C(=O)N1C [Compound N, 3-(2-methoxyethylthio)-4-(gamma-hydroxymethylleucine)cyclosporin]	6.46	< 4.70	> 20	> 6.70	< 200
CC=CCC(C)C(O)C1C(=O)NC(CC)C(=O)N(C)C(SCCN(C)C)C(=O)N(C)C(CC(C)(C)O)C(=O)NC(C(C)C)C(=O)N(C)C(CC(C)C)C(=O)NC(C)C(=O)NC(C)C(=O)N(C)C(CC(C)C)C(=O)N(C)C(CC(C)C)C(=O)N(C)C(C(C)C)C(=O)N1C [acetate, [(R)-2-(N,N-dimethylamino)ethylthio-Sar]3[4′-hydroxy-MeLeu]4 cyclosporin]	–	< 5.70	> 2	–	300
C/C=C/C[C@@H](C)[C@@H](O)[C@H]1C(=O)N[C@@H](CC)C(=O)N(C)[C@H](OCCN)C(=O)N(C)[C@@H](CC(C)C)C(=O)N[C@@H](C(C)C)C(=O)N(C)[C@@H](CC(C)C)C(=O)N[C@@H](C)C(=O)N[C@H](C)C(=O)N(C)[C@@H](CC(C)C)C(=O)N(C)[C@@H](CC(C)C)C(=O)N(C)[C@@H](C(C)C)C(=O)N1C [Compound B, 3-(2-aminoethoxy)cyclosporin]	–	5.20	20.3	5.93	2720
3-(ethoxy)-4-(gamma-hydroxymethylleucine)cyclosporin [W]	6.17	–	–	6.89	510
C/C=C/C[C@@H](C)[C@@H](O)[C@H]1C(=O)N[C@@H](CC)C(=O)N(C)C(OCCN(C)C(C)C)C(=O)N(C)[C@@H](CC(C)C)C(=O)N[C@@H](C(C)C)C(=O)N(C)[C@@H](CC(C)C)C(=O)N[C@@H](C)C(=O)N[C@H](C)C(=O)N(C)[C@@H](CC(C)C)C(=O)N(C)[C@@H](CC(C)C)C(=O)N(C)[C@@H](C(C)C)C(=O)N1C (some centres unmarked) [J, 3-[2-(N-methyl-N-isopropylamino)ethoxy]cyclosporin]	–	5.09	19.6	6.82	530
C/C=C/C[C@@H](C)[C@@H](O)[C@H]1C(=O)N[C@@H](CC)C(=O)N(C)C(OCCNC)C(=O)N(C)[C@@H](CC(C)C)C(=O)N[C@@H](C(C)C)C(=O)N(C)[C@@H](CC(C)C)C(=O)N[C@@H](C)C(=O)N[C@H](C)C(=O)N(C)[C@@H](CC(C)C)C(=O)N(C)[C@@H](CC(C)C)C(=O)N(C)[C@@H](C(C)C)C(=O)N1C (some centres unmarked) [Compound I, 3-[2-(N-methylamino)ethoxy]cyclosporin]	–	5.55	17.4	6.00	1870
C/C=C/C[C@@H](C)[C@@H](O)[C@H]1C(=O)N[C@@H](CC)C(=O)N(C)[C@H](OCCN(C)C)C(=O)N(C)[C@@H](CC(C)C)C(=O)N[C@@H](C(C)C)C(=O)N(C)[C@@H](CC(C)C)C(=O)N[C@@H](C)C(=O)N[C@H](C)C(=O)N(C)[C@@H](CC(C)C)C(=O)N(C)[C@@H](CC(C)C)C(=O)N(C)[C@@H](C(C)C)C(=O)N1C [Compound C, 3-(2-N,N-dimethylaminoethoxy)cyclosporin]	–	< 5.52	> 3	6.74	640
C/C=C/C[C@@H](C)[C@@H](O)[C@H]1C(=O)N[C@@H](CC)C(=O)N(C)C(OC)C(=O)N(C)[C@@H](CC(C)C)C(=O)N[C@@H](C(C)C)C(=O)N(C)[C@@H](CC(C)C)C(=O)N[C@@H](C)C(=O)N[C@H](C)C(=O)N(C)[C@@H](CC(C)C)C(=O)N(C)[C@@H](CC(C)C)C(=O)N(C)[C@@H](C(C)C)C(=O)N1C (some centres unmarked) [A, 3-methoxycyclosporin]	–	5.63	> 3	–	220
C/C=C/C[C@@H](C)[C@@H](O)[C@H]1C(=O)N[C@@H](CC)C(=O)N(C)[C@H](OCC(C)(C)C)C(=O)N(C)[C@@H](CC(C)C)C(=O)N[C@@H](C(C)C)C(=O)N(C)[C@@H](CC(C)C)C(=O)N[C@@H](C)C(=O)N[C@H](C)C(=O)N(C)[C@@H](CC(C)C)C(=O)N(C)[C@@H](CC(C)C)C(=O)N(C)[C@@H](C(C)C)C(=O)N1C [F, 3-(2,2-dimethylpropoxy)cyclosporin]	–	< 4.70	–	4.77	–
CC=CCC(C)C(O)C1C(=O)NC(CC)C(=O)N(C)C(OCC(CC)CC)C(=O)N(C)C(CC(C)C)C(=O)NC(C(C)C)C(=O)N(C)C(CC(C)C)C(=O)NC(C)C(=O)NC(C)C(=O)N(C)C(CC(C)C)C(=O)N(C)C(CC(C)C)C(=O)N(C)C(C(C)C)C(=O)N1C (centres unmarked) [Compound E, 3-(2-ethylbutoxy)cyclosporin]	–	4.81	–	–	–
CC=CCC(C)C(O)C1C(=O)NC(CC)C(=O)N(C)C(OCCN2CCCCC2)C(=O)N(C)C(CC(C)C)C(=O)NC(C(C)C)C(=O)N(C)C(CC(C)C)C(=O)NC(C)C(=O)NC(C)C(=O)N(C)C(CC(C)C)C(=O)N(C)C(CC(C)C)C(=O)N(C)C(C(C)C)C(=O)N1C (centres unmarked) [K, 3-[2-(piperidin-1-yl)ethoxy]cyclosporin]	–	5.26	17.8	6.59	590
CC=CCC(C)C(O)C1C(=O)NC(CC)C(=O)N(C)C(SCCN(C)C)C(=O)N(C)C(CC(C)(C)O)C(=O)NC(C(C)C)C(=O)N(C)C(CC(C)C)C(=O)NC(C)C(=O)NC(C)C(=O)N(C)C(CC(C)C)C(=O)N(C)C(CC(C)C)C(=O)N(C)C(C(C)C)C(=O)N1C [MeSO2, [(R)-2-(N,N-dimethylamino)ethylthio-Sar]3[4′-hydroxy-MeLeu]4 cyclosporin]	–	< 5.70	> 2	6.80	500
CC=CCC(C)C(O)C1C(=O)NC(CC)C(=O)N(C)C(SCCN(C)C)C(=O)N(C)C(CC(C)(C)O)C(=O)NC(C(C)C)C(=O)N(C)C(CC(C)C)C(=O)NC(C)C(=O)NC(C)C(=O)N(C)C(CC(C)C)C(=O)N(C)C(CC(C)C)C(=O)N(C)C(C(C)C)C(=O)N1C [phosphate, [(R)-2-(N,N-dimethylamino)ethylthio-Sar]3[4′-hydroxy-MeLeu]4 cyclosporin]	–	< 5.70	> 2	6.89	470
C/C=C/C[C@@H](C)[C@@H](O)[C@H]1C(=O)N[C@@H](CC)C(=O)N(C)C(OCCO)C(=O)N(C)[C@@H](CC(C)C)C(=O)N[C@@H](C(C)C)C(=O)N(C)[C@@H](CC(C)C)C(=O)N[C@@H](C)C(=O)N[C@H](C)C(=O)N(C)[C@@H](CC(C)C)C(=O)N(C)[C@@H](CC(C)C)C(=O)N(C)[C@@H](C(C)C)C(=O)N1C (some centres unmarked) [G, 3-(2-hydroxyethoxy)cyclosporin]	–	4.99	> 20	> 6.70	570
[(R)-2-(N,N-dimethylamino)ethylthio-Sar]3[4′-hydroxy-MeLeu]4 cyclosporin [citrate]	–	< 5.70	> 2	6.96	410
3-(isopropoxy)-4-(gamma-hydroxymethylleucine)cyclosporin [V]	6.36	–	–	6.44	1200
CC=CCC(C)C(O)C1C(=O)NC(CC)C(=O)N(C)C(SCCN(C)C)C(=O)N(C)C(CC(C)(C)O)C(=O)NC(C(C)C)C(=O)N(C)C(CC(C)C)C(=O)NC(C)C(=O)NC(C)C(=O)N(C)C(CC(C)C)C(=O)N(C)C(CC(C)C)C(=O)N(C)C(C(C)C)C(=O)N1C [hydrochloride, [(R)-2-(N,N-dimethylamino)ethylthio-Sar]3[4′-hydroxy-MeLeu]4 cyclosporin]	–	< 5.70	> 2	6.96	380
C/C=C/C[C@@H](C)[C@@H](O)[C@H]1C(=O)N[C@@H](CC)C(=O)N(C)C(OCC)C(=O)N(C)[C@@H](CC(C)C)C(=O)N[C@@H](C(C)C)C(=O)N(C)[C@@H](CC(C)C)C(=O)N[C@@H](C)C(=O)N[C@H](C)C(=O)N(C)[C@@H](CC(C)C)C(=O)N(C)[C@@H](CC(C)C)C(=O)N(C)[C@@H](C(C)C)C(=O)N1C (some centres unmarked) [M, 3-ethoxycyclosporin]	–	< 4.70	> 20	5.47	6110
[(R)-2-(N,N-dimethylamino)ethylthio-Sar]3[4′-hydroxy-MeLeu]4 cyclosporin [propionate]	–	< 5.70	> 2	7.00	320
